“And” between values parts separate entries of the source, which are not always exact repeats. Identical values can stand only once. Records with an inconclusive call do not appear. The source made the active and inactive calls.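 Rule for the calls: active = fitted dose curve reaches a 40% decrease at a concentration up to twice the top valid dose; inconclusive = flat curve showing 30 to 70% expression rise, or poor fit; inactive = the rest.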
tested on: not listed separately; assay: TRPM1 transcript decrease in melanoma cells – cell-based, SK-MEL-5, RT-qPCR, dry powder samples, orthogonal assay for MITF inhibitor project, dose response (AID 651770); conditions: SK-MEL-5, TRPM1 mRNA qPCR (delta-delta-Ct), overnight; at 35 µM (top of the series)

Q: With `COc1ccc(NC2=C(N3CCCCC3)C(=O)c3ccccc3C2=O)cc1` as the compound, how does the TRPM1 expression decrease read?
A: The TRPM1 expression decrease was 78% (inactive).

tested on: SK-MEL-5, TRPM1 mRNA qPCR (delta-delta-Ct), overnight; assay: as above; conditions: not given

Q: With `NS(=O)(=O)c1ccc(NC2=CC(=O)c3ccccc3C2=O)cc1` as the compound, how does the AC40 read?
A: The AC40 was 163 nM.

Q: Which AC40 does the source give for `CN1CCN(C2=C(Nc3ccc(F)cc3F)C(=O)c3ccccc3C2=O)CC1` here?
A: The AC40 was 1150 nM.

Q: Which AC40 does the source give for `O=C1C=C(NS(=O)(=O)c2ccc(Br)cc2)C(=O)c2ccccc21` here?
A: Its AC40 is 850 nM.

Q: Which AC40 does the source give for `O=C1C=C(NS(=O)(=O)c2ccccc2)C(=O)c2ccccc21` here?
A: Its AC40 is 193 nM.

Q: Which AC40 does the source give for `CC(C)N1CCN(C2=C(Nc3ccc(F)cc3F)C(=O)c3ccccc3C2=O)CC1` here?
A: The AC40 was 2020 nM.

Q: Which AC40 does the source give for `COC1=C(NS(=O)(=O)c2ccc(Br)cc2)C(=O)c2ccccc2C1=O` here?
A: The AC40 was 4440 nM.

Q: Which AC40 does the source give for `CCN1CCN(C2=C(NS(=O)(=O)c3ccc(Br)cc3)C(=O)c3ccccc3C2=O)CC1` here?
A: Its AC40 is 4930 nM.

Q: Which AC40 does the source give for `CN1CCN(C2=C(NS(=O)(=O)c3ccc(Br)s3)C(=O)c3ccccc3C2=O)CC1` here?
A: Its AC40 is 1130 nM.

Q: With `COC1=C(NS(=O)(=O)c2cccs2)C(=O)c2ccccc2C1=O` as the compound, how does the AC40 read?
A: Its AC40 is 4390 nM.

Q: With `O=C1C=C(Nc2ccccc2)C(=O)c2ccccc21` as the compound, how does the AC40 read?
A: The AC40 was 740 nM and 323 nM.

Q: With `NC1=C(NS(=O)(=O)c2ccc(Br)cc2)C(=O)c2ccccc2C1=O` as the compound, how does the AC40 read?
A: Its AC40 is 4090 nM.

Q: Which AC40 does the source give for `O=C1C=C(NS(=O)(=O)c2cccs2)C(=O)c2ccccc21` here?
A: The AC40 was 333 nM.

Q: For `O=C(NC1=C(Cl)C(=O)c2ccccc2C1=O)c1ccccc1`, which AC40 is on record?
A: Its AC40 is 164 nM.

Q: For `NC1=C(NS(=O)(=O)c2ccc(Br)s2)C(=O)c2ccccc2C1=O`, which AC40 is on record?
A: Its AC40 is 5240 nM.

Q: With `NC1=C(NC(=O)c2ccccc2)C(=O)c2ccccc2C1=O` as the compound, how does the AC40 read?
A: The AC40 was 722 nM.

Q: With `CCN1CCN(C2=C(NC(=O)c3ccccc3)C(=O)c3ccccc3C2=O)CC1` as the compound, how does the AC40 read?
A: Its AC40 is 1160 nM.

Q: With `NC1=C(NS(=O)(=O)c2cccs2)C(=O)c2ccccc2C1=O` as the compound, how does the AC40 read?
A: The AC40 was 987 nM.

Q: With `CC(C)N1CCN(C2=C(Nc3ccc(F)cc3)C(=O)c3ccccc3C2=O)CC1` as the compound, how does the AC40 read?
A: Its AC40 is 4910 nM.

Q: For `COC1=C(Nc2ccccc2)C(=O)c2ccccc2C1=O`, which AC40 is on record?
A: Its AC40 is 336 nM.

Q: With `COC1=C(NS(=O)(=O)c2ccccc2)C(=O)c2ccccc2C1=O` as the compound, how does the AC40 read?
A: Its AC40 is 3980 nM.

Q: For `CCN1CCN(C2=C(Nc3ccc(F)cc3F)C(=O)c3ccccc3C2=O)CC1`, which AC40 is on record?
A: The AC40 was 3190 nM.

Q: With `NC1=CC(=O)c2ccccc2C1=O` as the compound, how does the AC40 read?
A: Its AC40 is 3410 nM.

Q: Which AC40 does the source give for `C=CCNC1=C(Cl)C(=O)c2ccccc2C1=O` here?
A: Its AC40 is 943 nM.

Q: Which AC40 does the source give for `O=C1C(Nc2ccc(Cl)cc2)=C(N2CCCC2)C(=O)c2ccccc21` here?
A: Its AC40 is 10300 nM.

Q: Which AC40 does the source give for `O=C1C=C(Nc2ccc([N+](=O)[O-])c(C(F)(F)F)c2)C(=O)c2ccccc21` here?
A: The AC40 was 302 nM.

Q: For `O=C1C(NS(=O)(=O)c2cccs2)=C(c2ccccc2)C(=O)c2ccccc21`, which AC40 is on record?
A: The AC40 was 1680 nM.

Q: Which AC40 does the source give for `O=C1C(Nc2ccccc2)=C(c2ccccc2)C(=O)c2ccccc21` here?
A: Its AC40 is 8180 nM.

Q: With `NC1=C(NS(=O)(=O)c2ccccc2)C(=O)c2ccccc2C1=O` as the compound, how does the AC40 read?
A: Its AC40 is 1850 nM.
